Test results reported in patent US20160053120A1, “AZO DYE USED FOR A COLOR FILTER OF A LCD” (DOW GLOBAL TECHNOLOGIES LLC, priority 2013, published 2016).

Assays:
[1] = Solubility in cyclohexanone at 25° C.; format: physicochemical
[2] = Thermal stability of polymer film (ΔEab before and after hard baking at 200° C. for 1 hour); format: physicochemical; conditions: dye in acrylic resin film, baked at 200° C. under air for 1 hour; smaller ΔEab = better heat resistance
Protocol: The obtained dry film was baked at 200° C. under air for 1 hour to evaluate heat resistance. Optical performance measured by the difference between chromaticity coordinates of before and after baking (ΔEab value) was 4.9. A smaller ΔEab value indicates better heat resistance.
The wet films after spin coating are dried in oven at 80° C. for 30 minutes and then soft baked at 150° C. for 15 minutes. The chromaticity coordinates (L, a, b) are recorded with UltraScan Pro (Hunterlab) colorimeter. D65 light source is used and results are based on CIE Lab coordinates. After that the films are hard baked at target temperature (200° C.) for lhour and the new chromaticity coordinates (L′, a′, b′) are recorded with the method above. The thermal stability is indicated by the difference of chromaticity coordinate before and after hard baking represented by the following formula;
ΔE=√{square root over ((L−L′^2+(a−a′)^2+(b−b′)^2)}{square root over ((L−L′^2+(a−a′)^2+(b−b′)^2)}.

| Solubility in cyclohexanone at 25° C. (wt %) [1] | Thermal stability at 200° C. (ΔEab) [2] | Compound |
| --- | --- | --- |
| 6.4 wt % | 43 | CC1=NN(c2ccccc2)C(=O)C1/N=N/c1ccccc1 (stereo not drawn) [Example 2, C.I. solvent yellow 16] |
| 4.3 wt % | 15 | Cc1ccccc1/N=N/c1ccc(/N=N/c2c(O)ccc3ccccc23)c(C)c1 [Example 3, C.I. solvent red 24] |
| 6.4 wt % | 64 | Oc1ccc2ccccc2c1/N=N/c1ccccc1 [Example 4, C.I. solvent yellow 14] |
